Experiments:
IPOHE = experiment: Post-emergence foliar-applied weed control, greenhouse (Example I); assay type: in vivo, Ipomoea hederacea Jacq.; details: 150 gai/ha
Excerpt: (§1) Evaluation of Post-emergence Foliar-Applied Herbicidal Mixtures for Weed Control in Direct Seeded Rice
(§2) Seeds or nutlets of the desired test plant species were planted in a soil matrix prepared by mixing a loam or sandy loam soil (e.g., 28.6 percent silt, 18.8 percent clay, and 52.6 percent sand, with a pH of about 5.8 and an organic matter content of about 1.8 percent) and calcareous grit in an 80 to 20 ratio. The soil matrix was contained in plastic pots with a volume of 1 quart and a surface area of 83.6 square centimeters (cm^2). When required to ensure good germination and healthy plants, a fungicide treatment and/or other chemical or physical treatment was applied. The plants were grown for 8-22 days in a greenhouse with an approximate 14 h photoperiod which was maintained at about 29° C. during the day and 26° C. during the night. Nutrients (Peters Excel® 15-5-15 5-Ca 2-Mg and iron chelate) were applied in the irrigation solution as needed and water was added on a regular basis. Supplemental lighting was provided with overhead metal halide 1000-Watt lamps as necessary. The plants were employed for testing when they reached the first through fourth true leaf stage.
(§3) Treatments consisted of the acid or esters of 4-amino-3-chloro-5-fluoro-6-(4-chloro-2-fluoro-3-methoxy-phenyl)pyridine-2-carboxylic acid (Compound A), each formulated as an SC (suspension concentrate), and various herbicidal components alone and in combination. Forms of Compound A were applied on an acid equivalent basis.
(§4) Other herbicidal components were applied on an active ingredient basis and included 4-hydroxyphenyl pyruvate dioxygenase (HPPD)-inhibiting herbicides mesotrione formulated as Callisto®, sulcotrione formulated as Mikado®, pyrazolynate formulated as Sunbird® 10% GR, and benzobicyclon formulated as Benzobicyclon 3.5%.
(§5) Treatment requirements were calculated based upon the rates being tested, the concentration of active ingredient or acid equivalent in the formulation, and a 12 mL application volume at a rate of 187 L/ha.
(§6) For treatments comprised of formulated compounds, measured amounts of compounds were placed individually in 25 mL glass vials and diluted in a volume of 1.25% (v/v) Agri-Dex® crop oil concentrated to obtain 12× stock solutions. […] Application solutions were prepared by adding an appropriate amount of each stock solution (e.g., 1 mL) and diluted to the appropriate final concentrations with the addition of 10 mL of an aqueous mixture of 1.25% (v/v) crop oil concentrate so that the final spray solutions contained 1.25+/−0.05% (v/v) crop oil concentrate.
(§7) For treatments comprised of formulated and technical compounds, weighed amounts of the technical materials were placed individually in 25 mL glass vials and dissolved in a volume of 97:3 v/v acetone/DMSO to obtain 12× stock solutions, and measured amounts of the formulated compounds were placed individually in 25 mL glass vials and diluted in a volume of 1.5% (v/v) crop oil concentrate or water to obtain 12× stock solutions. […] Application solutions were prepared by adding an appropriate amount of each stock solution (e.g., 1 mL) and diluted to the appropriate final concentrations with the addition of an appropriate amount of an aqueous mixture of 1.5% (v/v) crop oil concentrate so that the final spray solutions contained 1.25% (v/v) crop oil concentrate. As required, additional water and/or 97:3 v/v acetone/DMSO was added to individual application solutions so that the final acetone and DMSO concentrations of the application solutions being compared were 8.1% and 0.25%, respectively.
(§8) All stock solutions and applications solutions were visually inspected for compound compatibility prior to application. Spray solutions were applied to the plant material with an overhead Mandel track sprayer equipped with a 8002E nozzles calibrated to deliver 187 L/ha over an application area of 0.503 m^2 at a spray height of 18 to 20 inches (46 to 50 cm) above average plant canopy height. […]

ECHCG [1] = experiment: as above; assay type: in vivo, Echinochloa crusgalli (L.) Beauv.
Excerpt: as §1, §2, §3, §4, §5, §6, §7, §8

LEFCH [2] = experiment: as above; assay type: in vivo, Leptochloa chinensis (L.) Nees; details: 150 gai/ha
Excerpt: as §1
as §2, with “stage. […]” for “stage.”
as §5
For treatments comprised of formulated compounds, measured amounts of compounds were placed individually in 25 mL glass vials and diluted in a volume of 1.25% (v/v) Agri-Dex® crop oil concentrated to obtain 12× stock solutions. […]
For treatments comprised of formulated and technical compounds, weighed amounts of the technical materials were placed individually in 25 mL glass vials and dissolved in a volume of 97:3 v/v acetone/DMSO to obtain 12× stock solutions, and measured amounts of the formulated compounds were placed individually in 25 mL glass vials and diluted in a volume of 1.5% (v/v) crop oil concentrate or water to obtain 12× stock solutions. […]

ECHCG [3] = experiment: In-water applied weed control, transplanted paddy rice, greenhouse (Example II); assay type: in vivo, Echinochloa crusgalli (L.) Beauv.
Protocol: (§9) Evaluation of in-Water Applied Herbicidal Mixtures for Weed Control in Transplanted Paddy Rice
(§10) Weed seeds or nutlets of the desired test plant species were planted in puddled soil (mud) prepared by mixing a shredded, non-sterilized mineral soil (50.5 percent silt, 25.5 percent clay, and 24 percent sand, with a pH of about 7.6 and an organic matter content of about 2.9 percent) and water at a 1:1 volumetric ratio. The prepared mud was dispensed in 365 mL aliquots into 16-ounce (oz.) non-perforated plastic pots with a surface area of 86.59 square centimeters (cm^2) leaving a headspace of 3 centimeters (cm) in each pot. Mud was allowed to dry overnight prior to planting or transplanting. Rice seeds were planted in Sun Gro MetroMix® 306 planting mixture, which typically has a pH of 6.0 to 6.8 and an organic matter content of about 30 percent, in plastic plug trays. Seedlings at the second or third leaf stage of growth were transplanted into 840 mL of mud contained in 32-oz. non-perforated plastic pots with a surface area of 86.59 cm^2 4 days prior to herbicide application. The paddy was created by filling the headspace of the pots with 2.5 to 3 cm of water. When required to ensure good germination and healthy plants, a fungicide treatment and/or other chemical or physical treatment was applied. The plants were grown for 4-22 days in a greenhouse with an approximate 14 h photoperiod which was maintained at about 29′C during the day and 26° C. during the night. Nutrients were added as Osmocote® (19:6:12, N:P:K+ minor nutrients) at 2 g per 16-oz. pot and 4 g per 32-oz. pot. Water was added on a regular basis to maintain the paddy flood, and supplemental lighting was provided with overhead metal halide 1000-Watt lamps as necessary. The plants were employed for testing when they reached the first through fourth true leaf stage.
(§11) Treatments consisted of the acid or esters of 4-amino-3-chloro-5-fluoro-6-(4-chloro-2-fluoro-3-methoxy-phenyl)pyridine-2-carboxylic acid (compound A) each formulated as an SC (suspension concentrate) and various herbicidal components alone and in combination. Forms of compound A were applied on an acid equivalent basis.
(§12) Other herbicidal components were applied on an active ingredient basis and included 4-hydroxyphenyl pyruvate dioxygenase (HPPD)-inhibiting herbicides mesotrione formulated as Callisto®, sulcotrione formulated as Mikado®, pyrazolynate formulated as Sunbird® 10% GR, and benzobicyclon formulated as Benzobicyclon 3.5% or technical material.
(§13) Treatment requirements for each compound or herbicidal component were calculated based upon the rates being tested, the concentration of active ingredient or acid equivalent in the formulation, an application volume of 2 mL per component per pot, and an application area of 86.59 cm^2 per pot.
(§14) For formulated compounds, a measured amount was placed in an individual 100 or 200 mL glass vial and was dissolved in a volume of 1.25% (v/v) Agri-Dex® crop oil concentrate to obtain application solutions.
(§15) For technical grade compounds, a weighed amount was placed in an individual 100 to 200 mL glass vial and was dissolved in a volume of acetone to obtain concentrated stock solutions. […] The concentrated stock solutions obtained were diluted with an equivalent volume of an aqueous mixture containing 2.5% (v/v) crop oil concentrate so that the final application solutions contained 1.25% (v/v) crop oil concentrate.
(§16) Applications were made by injecting with a pipetter appropriate amounts of the application solutions, individually and sequentially, into the aqueous layer of the paddy. Control plants were treated in the same manner with the solvent blank. Applications were made so that all treated plant material received the same concentrations of acetone and crop oil concentrate.
(§17) The treated plants and control plants were placed in a greenhouse as described above and water was added as needed to maintain a paddy flood. […]

ECHOR = experiment: as above; assay type: in vivo, Echinochloa oryzoides (Ard.) Fritsch
Protocol: as §9, §10, §11, §12, §13, §14, §15, §16, §17

FIMMI = experiment: as above; assay type: in vivo, Fimbristylis miliacea (L.) Vahl
Protocol: as §9, §10, §11, §12, §13, §14, §15, §16, §17

SCPMA = experiment: as above; assay type: in vivo; details: 37.5 gai/ha
Protocol: as §9, §10, §11, §12, §13, §14, §15, §16, §17

ECHCO = experiment: as above; assay type: in vivo, Echinochloa colona (L.) Link
Protocol: as §9, §10
Treatments consisted of the acid or esters of 4-amino-3-chloro-5-fluoro-6-(4-chloro-2-fluoro-3-methoxy-phenyl)pyridine-2-carboxylic acid (compound A) each formulated as an SC (suspension concentrate) and various herbicidal components alone and in combination. Forms of compound A were applied on an acid equivalent basis. […]
as §13
(§18) For formulated compounds, a measured amount was placed in an individual 100 or 200 mL glass vial and was dissolved in a volume of 1.25% (v/v) Agri-Dex® crop oil concentrate to obtain application solutions. […]

LEFCH [4] = experiment: as above; assay type: in vivo, Leptochloa chinensis (L.) Nees
Protocol: as §9, §10, §11, §12, §13, §14, §15, §16, §17

CYPRO = experiment: as above; assay type: in vivo, Cyperus rotundus L.
Protocol: as §9, §10, §11, §12, §13, §14, §15, §16, §17

SCPJU = experiment: as above; assay type: in vivo, Schoenoplectus juncoides (Roxb.) Palla
Protocol: as §9
as §10, with “Water was added on a regular basis to maintain the paddy flood, and supplemental lighting was provided with overhead metal halide 1000-Watt lamps as necessary. The plants were employed for testing when they reached the first through fourth true leaf stage.” left out
as §13, §18

Cc1ccc(S(=O)(=O)Oc2c(C(=O)c3ccc(Cl)cc3Cl)c(C)nn2C)cc1 [Pyrazolynate, (2,4-dichlorophenyl)[1,3-dimethyl-5-[[(4-methylphenyl)sulfonyl]oxy]-1H-pyrazol-4-yl]methanone, reference compound]
5%: Visual Weed Control (%) - 21 DAA LEFCH Obs (LEFCH [2])
8%: Visual Weed Control (%) - 21 DAA ECHOR Obs (ECHOR; 75 gai/ha)
0%: Visual Weed Control (%) - 22 DAA ECHCG Obs (ECHCG [1]; 37.5 gai/ha) | Visual Weed Control (%) - 22 DAA ECHCG Obs (ECHCG [1]; 75 gai/ha) | Visual Weed Control (%) - 21 DAA ECHCG Obs (ECHCG [1]; 150 gai/ha) | Visual Weed Control (%) - 21 DAA ECHCG Obs (ECHCG [3]; 37.5 gai/ha) | Visual Weed Control (%) - 21 DAA ECHCG Obs (ECHCG [3]; 75 gai/ha) | Visual Weed Control (%) - 21 DAA ECHOR Obs (ECHOR; 37.5 gai/ha) | Visual Weed Control (%) - 21 DAA FIMMI Obs (FIMMI; 37.5 gai/ha) | Visual Weed Control (%) - 21 DAA FIMMI Obs (FIMMI; 75 gai/ha) | Visual Weed Control (%) - 21 DAA SCPMA Obs (SCPMA) | Visual Weed Control (%) - 21 DAA ECHCO Obs (ECHCO; 37.5 gai/ha) | Visual Weed Control (%) - 21 DAA ECHCO Obs (ECHCO; 75 gai/ha) | Visual Weed Control (%) - 21 DAA LEFCH Obs (LEFCH [4]; 37.5 gai/ha) | Visual Weed Control (%) - 21 DAA CYPRO Obs (CYPRO; 37.5 gai/ha) | Visual Weed Control (%) - 21 DAA CYPRO Obs (CYPRO; 75 gai/ha) | Visual Weed Control (%) - 21 DAA SCPJU Obs (SCPJU; 37.5 gai/ha) | Visual Weed Control (%) - 21 DAA SCPJU Obs (SCPJU; 75 gai/ha)
13%: Visual Weed Control (%) - 21 DAA ECHOR Obs (ECHOR; 150 gai/ha)
10%: Visual Weed Control (%) - 21 DAA IPOHE Obs (IPOHE)
50%: Visual Weed Control (%) - 21 DAA LEFCH Obs (LEFCH [4]; 75 gai/ha)

Source: patent US8841233B2, “Herbicidal compositions comprising 4-amino-3-chloro-5-fluoro-6-(4-chloro-2-fluoro-3-methoxyphenyl) pyridine-2-carboxylic acid or a derivative thereof and 4-hydroxyphenyl-pyruvate dioxygenase (HPPD) inhibitors” (Dow Agrosciences LLC, priority 2012, dated 2014)
